Experimental findings from patent US8404678B2, “Cytotoxic agents comprising new tomaymycin derivatives and their therapeutic use” (priority 2007, dated 2013) are described below.

Read-outs that look alike come from different tables or passages of the source.

What all share (assay type): cell-based
The test system of experiment [1] is PC-3 cells. Kind of experiment: Continuous exposure clonogenic assay. The following applies: Homo sapiens. The procedure:
(§1) MDA-MB-231 cells were plated at 3000 cells per well in two separate 6-well plates; PC-3 and SK-MEL-28 cells were plated at 2000 cells per well in 2 separate plates. The test article(s) were added to give final concentrations of 0, 5×10^−13, 5×10^−12, 5×10^−11, 5×10^−10 and 5×10^−9 M per well (or similar dosage range) to each plate. For example, when cells are plated in 1 mL, and 1 mL of a 2× concentration of the test compound or conjugate is added to the appropriate wells to give the final desired concentration in 2 mls. The final solution of the test article was made in the same medium as the cell line; therefore, different dilutions of conjugate had to be made for each different cell line. The plates are placed in an incubator at 37° C. in 5% CO2. Cell growth is monitored and when cells in the “0” (control) wells had formed colonies but were not confluent, usually 7 days for these cell lines, the supernatant was removed by aspiration. The cells were washed once with PBS (Phosphate Buffer Solution) and the supernatant aspirated. To each well, 0.5 ml per well of a 0.1% crystal violet/10% formalin/PBS was added. The plates were incubated at room temperature for 10-15 minutes. The supernatant was aspirated and the wells washed 3 times with distilled H2O, and then air dried. Colonies in each well were counted and the number of colonies in each dosed well was divided by the number of colonies in the “0” well to give the surviving fraction. IC50 values were then calculated from the data.

Experiment [2] concerns MDA-MB-231 cells. Put plainly: Continuous exposure clonogenic assay. To be noted: Homo sapiens. The procedure:
as §1

Experiment [3] relates to SK-MEL-28 cells. Put plainly: Continuous exposure clonogenic assay. The following applies: Homo sapiens. On the procedure:
as §1

For experiment [4], the system named is HL60/ATCC cells. Kind of experiment: In vitro viability assay (WST-8). On the procedure:
(§2) Samples of free tomaymycin derivative or tomaymycin derivative conjugate are added to a 96-well flat bottomed tissue culture plate and titrated using serial dilutions ranging from 1×10^−12 M to 3×10^−7 M. Antigen positive tumor cells or antigen negative tumor cells are added to the wells in such a way that there are triplicate samples for each drug concentration for each cell line. […]
(§3) At the end of the incubation period, 20 μl of the tetrazolium reagent WST-8 (2-(2-methoxy-nitrophenyl)-3-(4-nitrophenyl)-5-(2,4-disulfophenyl)-2-tetrazolium, monosodium salt) is added to each well, and the plates are returned to the incubator for 2 hours. The absorbance in each well of the plates is then measured using the Molecular Devices plate reader at 450 nm. Surviving fraction of cells at each concentration of tomaymycin derivative or conjugate are plotted.
(§4) The cytotoxicity of the compounds and their specificity vs. the conjugates of the invention against MOLT-4, BJAB, HL60/QC, HL60/ATCC and Ramos cell lines were tested. Results are illustrated in FIGS. 1, 2, 3, 6 and 8.
For orientation: Tetrazolium assays rely on reduction of a dye to a coloured formazan, in cell work by metabolically active cells.

For experiment [5], the system named is Ramos cells. Kind of experiment: In vitro viability assay (WST-8). On the procedure:
as §2
[…] The absorbance in each well of the plates is then measured using the Molecular Devices plate reader at 450 nm. Surviving fraction of cells at each concentration of tomaymycin derivative or conjugate are plotted.
as §4

Experiment [6] has as its system HL60/QC cells. Kind of experiment: In vitro viability assay (WST-8). To be noted: Homo sapiens. The procedure:
(§5) Samples of free tomaymycin derivative or tomaymycin derivative conjugate are added to a 96-well flat bottomed tissue culture plate and titrated using serial dilutions ranging from 1×10^−12 M to 3×10^−7 M. Antigen positive tumor cells or antigen negative tumor cells are added to the wells in such a way that there are triplicate samples for each drug concentration for each cell line. The plates are incubated at 37° C. in an atmosphere of 5% CO2 for 4 days.
as §3, §4

The subject of experiment [7] is various cell-lines. Kind of experiment: In vitro cytotoxicity, cell line not named. The following applies: FIG. 3; IGP08-OMe compared with IGP08. The procedure: as §5
At the end of the incubation period, 20 μl of the tetrazolium reagent WST-8 (2-(2-methoxy-nitrophenyl)-3-(4-nitrophenyl)-5-(2,4-disulfophenyl)-2-tetrazolium, monosodium salt) is added to each well, and the plates are returned to the incubator for 2 hours. The absorbance in each well of the plates is then measured using the Molecular Devices plate reader at 450 nm. […]
MDA-MB-231 cells were plated at 3000 cells per well in two separate 6-well plates; PC-3 and SK-MEL-28 cells were plated at 2000 cells per well in 2 separate plates. […] Cell growth is monitored and when cells in the “0” (control) wells had formed colonies but were not confluent, usually 7 days for these cell lines, the supernatant was removed by aspiration. […] Colonies in each well were counted and the number of colonies in each dosed well was divided by the number of colonies in the “0” well to give the surviving fraction. IC50 values were then calculated from the data.

The mark [8] stands for this setting: PC-3, read-out: In vitro data (IC50) PC-3.
The mark [9] stands for this setting: MDA-MB-231, read-out: In vitro data (IC50) MDA-MB-231.
Setting [10] is: SK-MEL-28, read-out: In vitro data (IC50) SK-MEL-28.
The mark [11] stands for this setting: Homo sapiens, HL-60, read-out: In vitro data (IC50) HL60/ATCC.
Setting [12] is: Homo sapiens, Ramos, read-out: In vitro data (IC50) Ramos.
[13] abbreviates: HL-60, read-out: In vitro data (IC50) HL60/QC.

As to `C/C=C1\C[C@H]2C=Nc3cc(OCc4cc(COc5cc6c(cc5OC)C(=O)N5C/C(=C/C)C[C@H]5C=N6)cc(OCCOCCOCCOCCC(=O)OC)c4)c(OC)cc3C(=O)N2C1`, the IC50 in experiment [1] (setting [8]) amounted to 0.0074 nM; in experiment [2] (setting [9]), 0.016 nM; in experiment [3] (setting [10]), 0.0097 nM; in experiment [4] (setting [11]), 0.012 nM.
For the compound `C=C1C[C@H]2C=Nc3cc(OCc4cc(COc5cc6c(cc5OC)C(=O)N5C/C(=C/C)C[C@H]5C=N6)cc(OCC(=O)OC)c4)c(OC)cc3C(=O)N2C1`, the IC50 in experiment [4] (setting [11]) worked out at 0.012 nM; in experiment [5] (setting [12]), 0.0014 nM.
For `C=C1C[C@H]2C=Nc3cc(OCc4cc(CCC(=O)O)cc(COc5cc6c(cc5OC)C(=O)N5CC(=C)C[C@H]5C=N6)c4)c(OC)cc3C(=O)N2C1` [compound 9, 4-(3,5-Bis-[(S)-2-methylidene-7-methoxy-1,2,3,11a-tetrahydro-pyrrolo[2,1c][1,4]benzodiazepin-5-one-8-yloxymethyl]-phenyl)-propanoic acid], the results for the IC50 in experiment [6] (setting [13]), in experiment [4] (setting [11]) and in experiment [5] (setting [12]) were 3.5 nM, 2.6 nM and 2.7 nM, respectively.
Take “huMy9-6—3-(2-{2-[2-(3,5-Bis-[(S)-2-eth-(E)-ylidene-7-methoxy-1,2,3,11a-tetrahydro-pyrrolo[2,1c][1,4]benzodiazepin-5-one-8-yloxymethyl]-phenoxy)-ethoxy]-ethoxy}-ethoxy)-propionyl conjugate [ex. 14]”: the IC50 was ~0.023 nM in experiment [4] (conjugate, HL60/ATCC (Ag+) @ 5000 cells/well, 7 day exposure, WST 2 hours, FIG. 23, read-out: ~IC50 HL60/ATCC cells) and < 10 nM in experiment [5] (conjugate, Ramos (Ag−) @ 2000 cells/well, 5 day exposure, WST 4.5 hours, FIG. 23, read-out: ~IC50 Ramos cells).
For `C/C=C1\C[C@H]2C=Nc3cc(OCc4cc(OCCOCCOCCOCCC(=O)OC)cc(COc5cc6c(cc5OC)C(=O)N5C/C(=C/C)C[C@H]5C=N6)n4)c(OC)cc3C(=O)N2C1`, the results for the IC50 in experiment [1] (setting [8]), in experiment [2] (setting [9]) and in experiment [3] (setting [10]) were 0.5 nM, 0.008 nM and 0.071 nM, respectively.
For the compound `C/C=C1\C[C@H]2C=Nc3cc(OCc4cc(COc5cc6c(cc5OC)C(=O)N5C/C(=C/C)C[C@H]5C=N6)cc(OCCN(C)C(=O)CCC(=O)OC)c4)c(OC)cc3C(=O)N2C1`, the IC50 in experiment [1] (setting [8]) was 0.5 nM; in experiment [2] (setting [9]) it was 0.009 nM; in experiment [3] (setting [10]), 0.09 nM.
In the case of `C/C=C1\C[C@H]2C=Nc3cc(OCc4cc(C#CCCCC(=O)OC)cc(COc5cc6c(cc5OC)C(=O)N5C/C(=C/C)C[C@H]5C=N6)c4)c(OC)cc3C(=O)N2C1`, the IC50 in experiment [1] (setting [8]) worked out at 0.027 nM; in experiment [2] (setting [9]), 0.012 nM; in experiment [3] (setting [10]), 0.015 nM; in experiment [4] (setting [11]) it was 0.0022 nM; in experiment [5] (setting [12]) it was 0.0012 nM.
As to `C/C=C1\C[C@H]2C=Nc3cc(OCc4cc(OCCCC(=O)OC)cc(COc5cc6c(cc5OC)C(=O)N5C/C(=C/C)C[C@H]5C=N6)n4)c(OC)cc3C(=O)N2C1`, the IC50 in experiment [1] (setting [8]) stood at 0.011 nM; in experiment [2] (setting [9]), 0.0017 nM; in experiment [3] (setting [10]), 0.0087 nM.
Turning to `C=C1C[C@H]2C=Nc3cc(OCc4cc(CCC(=O)OC)cc(COc5cc6c(cc5OC)C(=O)N5CC(=C)C[C@H]5C=N6)c4)c(OC)cc3C(=O)N2C1` [compound 8], the IC50 in experiment [6] (HL-60, unconjugated tomaymicine derivatives, HL60/QC, read-out: In vitro data (IC50) HL60/QC) worked out at 0.0011 nM; in experiment [1] (unconjugated tomaymicine derivatives, PC-3, read-out: In vitro data (IC50) PC-3), 0.027 nM; in experiment [2] (unconjugated tomaymicine derivatives, MDA-MB-231, read-out: In vitro data (IC50) MDA-MB-231), 0.017 nM; in experiment [3] (unconjugated tomaymicine derivatives, SK-MEL-28, read-out: In vitro data (IC50) SK-MEL-28), 0.01 nM; in experiment [4] (Homo sapiens, HL-60, unconjugated tomaymicine derivatives, HL60/ATCC, read-out: In vitro data (IC50) HL60/ATCC), 0.004 nM; in experiment [5] (Homo sapiens, unconjugated tomaymicine derivatives, Ramos, read-out: In vitro data (IC50) Ramos), 0.008 nM. Further, the “In vitro cytotoxicity potency, ester versus acid” value in experiment [7] is given as “higher potency”.
As to `C/C=C1\C[C@H]2C=Nc3cc(OCc4cc(COc5cc6c(cc5OC)C(=O)N5C/C(=C/C)C[C@H]5C=N6)cc(OCCCC(=O)O)c4)c(OC)cc3C(=O)N2C1`, the IC50 in experiment [6] (setting [13]) turned out to be 1.2 nM; in experiment [4] (setting [11]), 2 nM; in experiment [5] (setting [12]), 0.58 nM.
